In patent publication US12378220B2, “WNT signaling pathway inhibitors for treatments of disease” (University of Maryland, Baltimore, priority 2016, dated 2025):
Like-named read-outs stand apart in the source and are kept apart here. Values belong to the molecule of their own block, whether it stands above or below them.

Test system: Wnt/β-catenin pathway
Assay: dual-luciferase TCF/LEF reporter assay, LiCl-activated, HEK293 cells
Format: cell-based
Protocol: Lithium chloride (LiCl), which has been previously established as an activator of the Wnt/β-catenin pathway through its direct and indirect effects on GSK3β was used for pathway activation. The inhibition of the Wnt/β-catenin pathway by a compound may be determined after its incubation with cells for 24 hours.
The assay provided herein is a dual-luciferase assay to measure Wnt/β-catenin pathway activation using a TCF/LEF responsive reporter construct similar to that described previously (Thorne et al., 2010).

[1] = Homo sapiens, HEK293, 24 h, At 1 μM concentration, remaining Wnt signaling activity, read-out: RLU % (Relative Light Units in reporter gene assays)
[2] = Homo sapiens, HEK293, Table 3, values in nM, read-out: IC50
[3] = Homo sapiens, HEK293, Table 6, read-out: IC50 (nM) or remaining activity at 1 μM: IC50
[4] = Homo sapiens, HEK293, Table 3, values in μM, read-out: IC50
[5] = Homo sapiens, HEK293, Table 5, read-out: IC50 (nM) or remaining activity at 1 μM: IC50
[6] = Homo sapiens, HEK293, Table 4, @ 1 μM, read-out: IC50 (nM) or remaining activity at 1 μM: remaining activity

Structure (SMILES): Cc1ccccc1-n1nnc(C(=O)Nc2nc3ccccc3s2)c1C [Compound 29, N-(benzo[d]thiazol-2-yl)-5-methyl-1-(o-tolyl)-1H-1,2,3-triazole-4-carboxamide]
- IC50 (Table 7, read-out: IC50): 34 nM

Structure (SMILES): Cc1c(C(=O)Nc2ccc3ccccc3n2)nnn1-c1ccccc1C(N)=O [Compound 40, 1-(2-Carbamoylphenyl)-5-methyl-N-(quinolin-2-yl)-1H-1,2,3-triazole-4-carboxamide]
- IC50 [3]: > 100000 nM

Structure (SMILES): Cc1ccc(-n2nnc(C(=O)Nc3cccc(C)n3)c2C)cc1 [Compound 21, 5-Methyl-N-(6-methylpyridin-2-yl)-1-(p-tolyl)-1H-1,2,3-triazole-4-carboxamide]
- IC50 [5]: 273 nM

Structure (SMILES): Cc1ccc(-n2nnc(C(=O)Nc3nc(-c4ccccc4)c(-c4ccccc4)s3)c2C)cc1 [YW1125, N-(4,5-diphenylthiazol-2-yl)-5-methyl-1-(p-tolyl)-1H-1,2,3-triazole-4-carboxamide]
- activity at 1 µM [1]: 55.1%

Structure (SMILES): Cc1ccc(-n2nnc(C(=O)Nc3ccc4ccccc4n3)c2C)cc1 [YW1127, 5-Methyl-N-(quinolin-2-yl)-1-(p-tolyl)-1H-1,2,3-triazole-4-carboxamide]
- activity at 1 µM [1]: 56.4%

Structure (SMILES): Cc1ccc(-n2nnc(C(=O)Nc3ccccn3)c2C)cc1 [YW1119, 5-Methyl-N-(pyridin-2-yl)-1-(p-tolyl)-1H-1,2,3-triazole-4-carboxamide]
- activity at 1 µM [1]: 106%

Structure (SMILES): Cc1c(C(=O)Nc2ccc3ccccc3n2)nnn1-c1ccc(F)cc1[N+](=O)[O-] [Compound 41, 1-(4-Fluoro-2-nitrophenyl)-5-methyl-N-(quinolin-2-yl)-1H-1,2,3-triazole-4-carboxamide]
- IC50 [3]: 5000 nM

Structure (SMILES): Cc1ccc(-n2c(C)cc(C(=O)Nc3ccccn3)c2C)cc1 [Compound 14, 2,5-dimethyl-N-(pyridin-2-yl)-1-(p-tolyl)-1H-pyrrole-3-carboxamide]
- activity at 1 µM [6]: 79.8%

Structure (SMILES): COc1ccccc1-n1nnc(C(=O)Nc2ccc3ccccc3n2)c1C [Compound 35, 1-(2-Methoxyphenyl)-5-methyl-N-(quinolin-2-yl)-1H-1,2,3-triazole-4-carboxamide]
- IC50 [3]: 88 nM

Structure (SMILES): Cc1ccccc1-n1nnc(C(=O)Nc2ccc3ccccc3c2)c1C [Compound 31, 5-Methyl-N-(naphthalen-2-yl)-1-(o-tolyl)-1H-1,2,3-triazole-4-carboxamide]
- IC50 (Table 7, read-out: IC50): 471 nM

Structure (SMILES): Cc1c(C(=O)Nc2ccc3ccccc3n2)nnn1-c1cccc(Cl)c1 [Compound 44, 1-(3-Chlorophenyl)-5-methyl-N-(quinolin-2-yl)-1H-1,2,3-triazole-4-carboxamide]
- IC50 [3]: 731 nM

Structure (SMILES): Cc1ccc(-n2nnc(C(=O)Nc3ccc4c(=O)cc(C)oc4c3)c2C)cc1 [Compound 26, 5-Methyl-N-(2-methyl-4-oxo-4H-chromen-7-yl)-1-(p-tolyl)-1H-1,2,3-triazole-4-carboxamide]
- IC50 [5]: > 1000 nM

Structure (SMILES): Cc1c(C(=O)Nc2ccc3ccccc3n2)nnn1-c1cccc2ccccc12 [Compound 43, 5-Methyl-1-(naphthalen-1-yl)-N-(quinolin-2-yl)-1H-1,2,3-triazole-4-carboxamide]
- IC50 [3]: 4000 nM

Structure (SMILES): Cc1c(C(=O)Nc2ccc3ccccc3n2)nnn1-c1ccccc1N1CCOCC1 [YW1155, 5-Methyl-1-(2-morpholinophenyl)-N-(quinolin-2-yl)-1H-1,2,3-triazole-4-carboxamide]
- activity at 1 µM [1]: 99.8%

Structure (SMILES): Cc1cccc(-n2nnc(C(=O)Nc3ccc4ccccc4n3)c2C)c1C [Compound 42, 1-(2,3-Dimethylphenyl)-5-methyl-N-(quinolin-2-yl)-1H-1,2,3-triazole-4-carboxamide]
- IC50 [3]: 567 nM

Structure (SMILES): Cc1c(C(=O)Nc2ccc3ccccc3n2)nnn1-c1ccccc1C#N [Compound 34, 1-(2-Cyanophenyl)-5-methyl-N-(quinolin-2-yl)-1H-1,2,3-triazole-4-carboxamide]
- IC50 [3]: 76 nM

Structure (SMILES): Cc1ccc(-n2c(C)cc(C(=O)NCc3ccccc3)c2C)cc1 [Compound 17, N-benzyl-2,5-dimethyl-1-(p-tolyl)-1H-pyrrole-3-carboxamide]
- activity at 1 µM [6]: 93%

Structure (SMILES): Cc1c(C(=O)Nc2ccc3ccccc3n2)nnn1-c1ccccc1N1CCOCC1 [Compound 37, 5-Methyl-1-(2-morpholinophenyl)-N-(quinolin-2-yl)-1H-1,2,3-triazole-4-carboxamide]
- IC50 [3]: > 1000 nM

Structure (SMILES): Cc1ccc(-n2nnc(C(=O)Nc3ccc4ccccc4n3)c2C)cc1 [Compound 27, 5-Methyl-N-(quinolin-2-yl)-1-(p-tolyl)-1H-1,2,3-triazole-4-carboxamide]
- activity at 1 µM (Homo sapiens, HEK293, Table 6, @ 1 μM, read-out: IC50 (nM) or remaining activity at 1 μM: remaining activity): 56.4 ± 2%

Structure (SMILES): Cc1ccc(-n2c(C)cc(C(=O)Nc3nc(-c4ccccc4)cs3)c2C)cc1 [Compound 16, 2,5-dimethyl-N-(4-phenylthiazol-2-yl)-1-(p-tolyl)-1H-pyrrole-3-carboxamide]
- IC50 (Homo sapiens, HEK293, Table 4, LiCl-mediated WNT signaling, read-out: IC50 (nM) or remaining activity at 1 μM: IC50): 379 nM

Structure (SMILES): Cc1ccc(-n2nnc(C(=O)Nc3ccc4c(=O)cc(C)oc4c3)c2C)cc1 [YW1123, 5-Methyl-N-(2-methyl-4-oxo-4H-chromen-7-yl)-1-(p-tolyl)-1H-1,2,3-triazole-4-carboxamide]
- activity at 1 µM [1]: 87.6%

Structure (SMILES): Cc1ccc(-n2nnc(C(=O)NCc3ccccn3)c2C)cc1 [YW1121, 5-Methyl-N-(pyridin-2-ylmethyl)-1-(p-tolyl)-1H-1,2,3-triazole-4-carboxamide]
- activity at 1 µM [1]: 92.1%

Structure (SMILES): Cc1c(C(=O)Nc2ccc3ccccc3n2)nnn1-c1ccccc1Br [Compound 36, 1-(2-Bromophenyl)-5-methyl-N-(quinolin-2-yl)-1H-1,2,3-triazole-4-carboxamide]
- IC50 [3]: 10 nM

Structure (SMILES): Cc1ccc(-n2c(C)cc(C(=O)Nc3cnccn3)c2C)cc1 [YW1117-2, 2,5-Dimethyl-N-(pyrazin-2-yl)-1-(p-tolyl)-1H-pyrrole-3-carboxamide]
- activity at 1 µM [1]: 113%

Structure (SMILES): Cc1ccc(-n2nnc(C(=O)Nc3ccccn3)c2C)cc1 [Compound 20, 5-Methyl-N-(pyridin-2-yl)-1-(p-tolyl)-1H-1,2,3-triazole-4-carboxamide]
- activity at 1 µM (Homo sapiens, HEK293, Table 5, @ 1 μM, read-out: IC50 (nM) or remaining activity at 1 μM: remaining activity): 100%

Structure (SMILES): Cc1ccc(-n2c(C)cc(C(=O)Nc3ccccn3)c2C)cc1 [YW1109, 2,5-Dimethyl-N-(pyridin-2-yl)-1-(p-tolyl)-1H-pyrrole-3-carboxamide]
- activity at 1 µM [1]: 79.8%

The next lines start with results.

- IC50 [2]: 379 nM
Structure (SMILES): Cc1ccc(-n2c(C)cc(C(=O)Nc3nc(-c4ccccc4)cs3)c2C)cc1 [YW1114, 2,5-Dimethyl-N-(4-phenylthiazol-2-yl)-1-(p-tolyl)-1H-pyrrole-3-carboxamide]
- activity at 1 µM [1]: 34.6%

- IC50 [4]: 22000 nM
Structure (SMILES): Cc1ccccc1-n1nnc(C(=O)Nc2nc(-c3ccccc3)cs2)c1C [YW1183, 5-Methyl-N-(4-phenylthiazol-2-yl)-1-(o-tolyl)-1H-1,2,3-triazole-4-carboxamide]
- activity at 1 µM [1]: 90.8%

- IC50 [2]: 177 nM
Structure (SMILES): CC(C)c1c(C(=O)Nc2ccc3ccccc3n2)nnn1-c1ccccc1F [YW2020, 1-(2-Fluorophenyl)-5-isopropyl-N-(quinolin-2-yl)-1H-1,2,3-triazole-4-carboxamide]
- activity at 1 µM [1]: 17.7%

- IC50 [4]: > 100000 nM
Structure (SMILES): Cc1c(C(=O)Nc2ccc3ccccc3n2)nnn1-c1ccccc1C(N)=O [YW1182, 1-(2-Carbamoylphenyl)-5-methyl-N-(quinolin-2-yl)-1H-1,2,3-triazole-4-carboxamide]
- activity at 1 µM [1]: 89.9%

- IC50 [4]: 48000 nM
Structure (SMILES): Cc1ccc(-n2nnc(C(=O)Nc3cc(C)no3)c2C)cc1 [YW1124, 5-Methyl-N-(3-methylisoxazol-5-yl)-1-(p-tolyl)-1H-1,2,3-triazole-4-carboxamide]
- activity at 1 µM [1]: 121%

- IC50 [2]: 273 nM
Structure (SMILES): Cc1ccc(-n2nnc(C(=O)Nc3cccc(C)n3)c2C)cc1 [YW1134, 5-Methyl-N-(6-methylpyridin-2-yl)-1-(p-tolyl)-1H-1,2,3-triazole-4-carboxamide]
- activity at 1 µM [1]: 79.5%

- IC50 [2]: 34 nM
Structure (SMILES): Cc1ccccc1-n1nnc(C(=O)Nc2nc3ccccc3s2)c1C [YW1132, N-(benzo[d]thiazol-2-yl)-5-methyl-1-(o-tolyl)-1H-1,2,3-triazole-4-carboxamide]
- activity at 1 µM [1]: 4.9%

- IC50 [4]: 4000 nM
Structure (SMILES): Cc1c(C(=O)Nc2ccc3ccccc3n2)nnn1-c1cccc2ccccc12 [YW1151, 5-Methyl-1-(naphthalen-1-yl)-N-(quinolin-2-yl)-1H-1,2,3-triazole-4-carboxamide]
- activity at 1 µM [1]: 79.3%

- IC50 [2]: 76 nM
Structure (SMILES): Cc1c(C(=O)Nc2ccc3ccccc3n2)nnn1-c1ccccc1C#N [YW1157, 1-(2-Cyanophenyl)-5-methyl-N-(quinolin-2-yl)-1H-1,2,3-triazole-4-carboxamide]
- activity at 1 µM [1]: 6.5%

- IC50 [2]: 814 nM
Structure (SMILES): CC(=O)c1ccccc1-n1nnc(C(=O)Nc2ccc3ccccc3n2)c1C [YW1181, 1-(2-Acetylphenyl)-5-methyl-N-(quinolin-2-yl)-1H-1,2,3-triazole-4-carboxamide]
- activity at 1 µM [1]: 18.1%

- IC50 [2]: 130 nM
Structure (SMILES): Cc1ccc(-n2nnc(C(=O)Nc3ccc4ccccc4n3)c2C)c(C)c1 [YW1179, 1-(2,4-Dimethylphenyl)-5-methyl-N-(quinolin-2-yl)-1H-1,2,3-triazole-4-carboxamide]
- activity at 1 µM [1]: 10.6%

- IC50 [2]: 471 nM
Structure (SMILES): Cc1ccccc1-n1nnc(C(=O)Nc2ccc3ccccc3c2)c1C [YW1130, 5-Methyl-N-(naphthalen-2-yl)-1-(o-tolyl)-1H-1,2,3-triazole-4-carboxamide]
- activity at 1 µM [1]: 19.7%

- IC50 [4]: 5000 nM
Structure (SMILES): Cc1c(C(=O)Nc2ccc3ccccc3n2)nnn1-c1ccc(F)cc1[N+](=O)[O-] [YW1171, 1-(4-Fluoro-2-nitrophenyl)-5-methyl-N-(quinolin-2-yl)-1H-1,2,3-triazole-4-carboxamide]
- activity at 1 µM [1]: 77.8%
